No end group written: not given here.
Legend:
[1] = test system: BCMA-specific T-ChARM T cells co-cultured with K562/BCMA+ cells; assay: Effect of exogenous soluble BCMA / BCMA-Fc on BCMA-specific T-ChARM T cell function; assay type: cell-based, human
Description: (H) IFN-γ production by BCMA-specific T-ChARM T cells in the presence of exogenous soluble BCMA. sBCMA was added to co-cultures of T cells expressing a BCMA-specific T-ChARM and K562 cells transduced with a polynucleotide encoding full-length BCMA (K562/BCMA^+).
(I) Data from another dose-titration experiment showing the effect of sBCMA on IFN-γ production by BCMA-specific T-ChARM T cells recognizing K562 BCMA^+ cells, which included adding sBCMA to culture at another, higher concentration (5000 ng/mL).
(N) Flow cytometry data showing IFN-γ production (y-axis) and CD4 expression (x-axis) by T cells expressing either a C113ST-ChARM (“C113ST”) of this disclosure or a control anti-CD19 CAR (“[…]”), in co-culture with target-expressing K562 cells and administered the BCMA-Fc fusion protein (left panels: 0 ng/ml BCMA-Fc; right panels: 1000 ng/ml BCMA-Fc.
(O) Dose titration showing IFN-γ release by CAR T cells in response to target cell lines as indicated in the presence or absence of exogenous recombinant BCMA (BCMA-Fc fusion). FMC63 (anti-CD19) vs. K562 CD19^+ (control; downward-facing triangle); C113ST T-ChARM T cells vs. RPMI 8226 (upward-facing triangle), U266 (square), and K562 BCMA^+ cells (circle). Data is representative of 2 independent experiments. Bars represent mean+SEM. P-value=<0.05, as determined by one-way ANOVA with post-test. MFI=mean fluorescence intensity.
(P) IFN-γ production (normalized Mean Fluorescence Intensity, MFI) by the T cells shown in FIG. 2O in co-culture with indicated antigen-expressing cells and in the presence or absence of BCMA-Fc (x-axis).
(Q) Cytolytic activity of CD8^+ C113ST T-ChARM T cells against K562 BCMA^+ target cells and of FMC63 CAR-T cells against K562 CD19^+ target cells at varying concentrations of recombinant BCMA, analyzed by a 4 h CRA at E:T ratio of 10:1. Data is representative of 2 independent experiments. Bars represent mean+SEM. P-value=<0.05, as determined by one way ANOVA with post-test. MFI=mean fluorescence intensity.
The effect of sBCMA was examined as well by adding sBCMA to co-cultures of T cells expressing a BCMA-specific T-ChARM and K562 cells transduced with a polynucleotide encoding full-length BCMA (K562/BCMA^+).

[2] = test system: C113ST T-ChARM T cells; assay: sBCMA binding to T-ChARM T cells (BCMA-Fc-APC staining after incubation with recombinant BCMA); set-up: species or system human; conditions: increasing levels of recombinant BCMA
Description: (L) sBCMA binding to C113ST-ChARM T cells of this disclosure. T cells were incubated with the indicated levels of recombinant sBCMA (right side of diagram) and then stained with a BCMA-Fc fusion that was conjugated to APC.
To examine whether high levels of sBCMA might inhibit the activity of BCMA-specific T-ChARM T cells, patient bone marrow (BM) sera were examined for sBCMA levels. […] To test whether sBCMA would bind to the T-ChARM T cells, the T cells were incubated with increasing levels of recombinant BCMA and then stained using BCMA-Fc conjugated to APC.

Row | Substance | recognition (IFN-γ production and CD4 expression) by BCMA-targeting T-ChARM T cells ([1]; BCMA-Fc added to co-cultures) | recognition by control anti-CD19 CAR T cells ([1]; BCMA-Fc added, K562 cells expressing CD19) | dose dependence of effect on BCMA T-ChARM T cells ([1]; BCMA-Fc titration) | T-ChARM T cell effector function (IFN-γ release) ([1]; exogenous sBCMA added to co-culture with K562/BCMA+) | IFN-γ production by T-ChARM T cells ([1]; recombinant BCMA not fused to Fc) | lysis of K562 BCMA+ cells by T-ChARM T cells ([1]; recombinant BCMA not fused to Fc, 4 h CRA, E:T 10:1) | BCMA-Fc-APC staining of T-ChARM T cells [2]
1 | BCMA-Fc: recombinant BCMA-Fc fusion protein (MLQMAGQCSQNEYFDSLLHACIPCQLRCSSNTPPLTCQRYCNASVTNSVKGTNA; not fully specified; cysteine pairing not given here; also: fused to dimerising Fc or GST (not given here)) | much-reduced recognition | but not by control anti-CD19 CAR T cells | dose-dependent |  |  |  | 
2 | sBCMA: exogenous soluble / recombinant BCMA not fused to Fc (MLQMAGQCSQNEYFDSLLHACIPCQLRCSSNTPPLTCQRYCNASVTNSVKGTNA) |  |  |  | dose-dependent inhibition | inhibited IFN-γ production in a dose-dependent fashion | did not inhibit lysis | staining decreased
